Measured values published in ChEMBL document CHEMBL5303304, “EUbOPEN Chemogenomics Library - IncuCyte” (2023).

Columns and labels:
Assay type in all cases: toxicity, cell-based
HEK-293T = experiment: Incucyte cell viability with HEK293T; conditions: human, 10 µM, compound concentration 10 uM
Fibroblast = experiment: Incucyte cell viability with human fibroblast; conditions: 10 µM, compound concentration 10 uM
U2OS = experiment: Incucyte cell viability with U2OS; conditions: human, 10 µM, compound concentration 10 uM
Also: unitless GR value; below 1 slowed growth and below 0 cell loss.

Structure (SMILES)	Growth Rate (HEK-293T; 0 h, replicate number 2)	Growth Rate (HEK-293T; 6 h, replicate number 1)	Growth Rate (HEK-293T; 12 h, replicate number 1)	Growth Rate (Fibroblast; 0 h, replicate number 2)	Growth Rate (Fibroblast; 6 h, replicate number 1)	Growth Rate (Fibroblast; 12 h, replicate number 2)	Growth Rate (Fibroblast; 18 h, replicate number 2)	Growth Rate (Fibroblast; 24 h, replicate number 2)	Growth Rate (U2OS; 0 h, replicate number 1)	Growth Rate (U2OS; 6 h, replicate number 1)	Growth Rate (U2OS; 12 h, replicate number 1)	Growth Rate (U2OS; 12 h, replicate number 2)	Growth Rate (U2OS; 18 h, replicate number 2)	Growth Rate (U2OS; 24 h, replicate number 1)	Growth Rate (U2OS; 24 h, replicate number 2)	Growth Rate (HEK-293T; 12 h, replicate number 2)	Growth Rate (HEK-293T; 18 h, replicate number 1)	Growth Rate (HEK-293T; 18 h, replicate number 2)	Growth Rate (Fibroblast; 6 h, replicate number 2)	Growth Rate (U2OS; 18 h, replicate number 1)	further results
CN(C)C(=O)Cn1cc(-c2ccc(-c3nnc4ccccn34)cc2)cn1	0.91	0.81	0.91	-0.65	0.9	0.97	0.9	0.99	0.43	0.9	0.76	0.88	0.96	0.67	0.99	–	–	–	–	–	–
O=C(Nc1ccccc1Cl)c1cnc2ccc(C3CCNCC3)cn12.O=C(O)C(=O)O	–	-0.96	-0.83	–	–	-0.49	0.05	0.33	–	-0.44	0.46	0.5	0.61	0.64	0.59	-0.61	-0.53	-0.27	-1	0.62	Growth Rate (HEK-293T; 24 h, replicate number 1): -0.28; Growth Rate (HEK-293T; 24 h, replicate number 2): -0.03; Growth Rate (Fibroblast; 18 h, replicate number 1): -0.51; Growth Rate (Fibroblast; 24 h, replicate number 1): -0.36; Growth Rate (U2OS; 0 h, replicate number 2): -1; Growth Rate (U2OS; 6 h, replicate number 2): 0.06
CCOC(=O)c1cc2cc(-c3cc(C(=O)NCc4ccc(C(=O)O)cc4)nn3C)ccc2[nH]1 [BI 4394]	0.34	0.88	0.98	–	–	0.54	0.7	0.86	0.89	0.74	–	0.96	0.99	0.96	–	–	0.93	–	0.71	–	Growth Rate (HEK-293T; 0 h, replicate number 1): 0.13
O[C@]1(C(F)(F)F)CCCC[C@H]1Nc1ccc(F)cc1 [BAY-390]	-0.23	–	–	0.2	0.19	–	–	–	-0.18	0.4	0.57	0.8	–	0.74	0.93	0.95	–	–	–	0.69	Growth Rate (HEK-293T; 0 h, replicate number 1): -0.2; Growth Rate (HEK-293T; 6 h, replicate number 2): 0.5; Growth Rate (Fibroblast; 12 h, replicate number 1): 0.69; Growth Rate (Fibroblast; 18 h, replicate number 1): 0.78; Growth Rate (Fibroblast; 24 h, replicate number 1): 0.89; Growth Rate (U2OS; 0 h, replicate number 2): 0.62; Growth Rate (U2OS; 6 h, replicate number 2): 0.7
CC(=O)N(CCN(C)C)c1ccc(N/C(=C2\C(=O)Nc3cc(Cl)ccc32)c2ccccc2)cn1	–	-0.78	-0.58	-1	-0.62	-0.8	-0.76	-0.72	–	-0.35	0.03	0.23	0.1	-0.14	-0.13	-0.71	-0.45	-0.55	-0.8	0.02	Growth Rate (HEK-293T; 6 h, replicate number 2): -0.92; Growth Rate (HEK-293T; 24 h, replicate number 1): -0.37; Growth Rate (HEK-293T; 24 h, replicate number 2): -0.42; Growth Rate (Fibroblast; 12 h, replicate number 1): -0.65; Growth Rate (Fibroblast; 18 h, replicate number 1): -0.63; Growth Rate (Fibroblast; 24 h, replicate number 1): -0.58; Growth Rate (U2OS; 6 h, replicate number 2): 0.34
O=C(CNC(=O)c1ccc(-c2ccccc2)cc1)NC1CCCc2ccccc21 (centres undefined)	-0.65	0.23	-0.08	–	–	0.26	0.42	0.7	0.77	0.38	0.67	0.9	–	0.55	0.93	0.41	0.26	0.38	0.27	0.43	Growth Rate (HEK-293T; 6 h, replicate number 2): 0.73; Growth Rate (HEK-293T; 24 h, replicate number 1): 0.39; Growth Rate (HEK-293T; 24 h, replicate number 2): 0.46
